Source: PubChem BioAssay (NCI)
Several values for one entry are separate records, joined by “and”; a condition that tells them apart may be missing. Equal values may be shown once.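 Compound exposure: 48 hours, 5 concentrations, 96-well plates. GI50 = concentration required for 50% inhibition of growth. TGI: concentration producing complete growth inhibition.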

Tests used:
Assay in all cases: DTP human tumour cell line panel, 48 h
[1] = test system: NCI-H522 lung
[2] = test system: HCT-15 colon
[3] = test system: SF-539 CNS
[4] = test system: SK-MEL-5 melanoma
[5] = test system: UO-31 renal
[6] = test system: IGROV1 ovarian
[7] = test system: HOP-62 NSCLC
[8] = test system: OVCAR-3 ovarian
[9] = test system: NCI/ADR-RES ovarian
[10] = test system: HCT-116 colon
[11] = test system: U251 CNS
[12] = test system: SF-295 CNS
[13] = test system: SN12C renal
[14] = test system: M14 melanoma
[15] = test system: SW-620 colon
[16] = test system: HL-60(TB) leukemia
[17] = test system: NCI-H460 lung
[18] = test system: MCF7 breast
[19] = test system: SK-MEL-2 melanoma
[20] = test system: HOP-92 NSCLC
[21] = test system: ACHN renal
[22] = test system: OVCAR-4 ovarian
[23] = test system: OVCAR-8 ovarian
[24] = test system: 786-0 renal
[25] = test system: SNB-75 CNS
[26] = test system: TK-10 renal
[27] = test system: NCI-H226 lung
[28] = test system: MDA-MB-435
[29] = test system: HT29 colon
[30] = test system: A549 NSCLC
[31] = test system: EKVX NSCLC
[32] = test system: RPMI-8226 leukemia
[33] = test system: SR leukemia
[34] = test system: LOX IMVI melanoma
[35] = test system: BT-549 breast
[36] = test system: MDA-MB-231 breast
[37] = test system: MDA-N
[38] = test system: NCI-H23 lung
[39] = test system: HS 578T breast
[40] = test system: SK-MEL-28 melanoma
[41] = test system: RXF 393 renal
[42] = test system: A498 renal
[43] = test system: COLO 205 colon
[44] = test system: SK-OV-3 ovarian
[45] = test system: KM12 colon
[46] = test system: T-47D breast
[47] = test system: MALME-3M melanoma
[48] = test system: UACC-257 melanoma
[49] = test system: HCC-2998 colon
[50] = test system: K-562 leukemia
[51] = test system: MOLT-4 leukemia
[52] = test system: SNB-19 CNS
[53] = test system: CAKI-1 renal
[54] = test system: DU-145 prostate
[55] = test system: UACC-62 melanoma
[56] = test system: OVCAR-5 ovarian
[57] = test system: SF-268 CNS
[58] = test system: CCRF-CEM leukemia
[59] = test system: PC-3 prostate

COc1cc(CC(C)C(C)Cc2ccc(O)c(OC)c2)ccc1O (stereo unspecified)
GI50 [1]: 16.2 µM | TGI [1]: 21.4 µM and 33.5 µM | GI50 [2]: 18 µM | TGI [2]: 50 µM and 39.9 µM | GI50 [3]: 17 µM | TGI [3]: 50 µM and 31.6 µM | GI50 [4]: 14.9 µM | TGI [4]: 16.5 µM and 28.1 µM | TGI [5]: 25.3 µM | GI50 [6]: 16.4 µM | TGI [6]: 43.1 µM and 33.7 µM | GI50 [7]: 17.6 µM | TGI [7]: 50 µM and 33.6 µM | TGI [8]: 50 µM and 32.5 µM | TGI [9]: 50 µM and 41.6 µM | GI50 [10]: 14.6 µM | TGI [10]: 50 µM and 27.7 µM | TGI [11]: 50 µM | TGI [12]: 50 µM and 35.1 µM | GI50 [13]: 13.1 µM | TGI [13]: 50 µM and 26 µM | TGI [14]: 47.5 µM and 30.2 µM | TGI [15]: 50 µM and 35 µM | GI50 [16]: 0.0179 µM | GI50 [17]: 18.3 µM | TGI [17]: 39.9 µM and 32.3 µM | TGI [18]: 38 µM | TGI [19]: 25 µM | GI50 [20]: 14.5 µM | TGI [20]: 27.6 µM and 30.2 µM | TGI [21]: 37.9 µM and 28.2 µM | GI50 [22]: 17.3 µM | TGI [22]: 50 µM and 41.2 µM | TGI [23]: 50 µM and 41 µM | GI50 [24]: 13.6 µM | TGI [24]: 50 µM and 26.5 µM | GI50 [25]: 18.4 µM | TGI [25]: 50 µM and 34.5 µM | GI50 [26]: 18.2 µM | TGI [26]: 50 µM and 32.7 µM | GI50 [27]: 16.8 µM | TGI [27]: 40.7 µM and 33.2 µM | GI50 [28]: 15.1 µM | TGI [28]: 38.4 µM and 29.6 µM | GI50 [29]: 16.2 µM | TGI [29]: 50 µM and 31.1 µM | TGI [30]: 50 µM and 27.1 µM | TGI [31]: 41.5 µM and 30.3 µM | GI50 [32]: 19.4 µM | TGI [32]: 17.4 µM and 45.8 µM | GI50 [33]: 6.41 µM | TGI [33]: 18.8 µM and 24.9 µM | GI50 [34]: 17.9 µM | TGI [34]: 30.7 µM and 40.9 µM | TGI [35]: 50 µM and 31.4 µM | TGI [36]: 50 µM | GI50 [37]: 13.7 µM | TGI [37]: 50 µM and 26.6 µM | GI50 [38]: 21.2 µM | TGI [38]: 50 µM and 44.4 µM | GI50 [39]: 20 µM | TGI [39]: 22.7 µM and 49.8 µM | TGI [40]: 50 µM and 35.5 µM | GI50 [41]: 17.7 µM | TGI [41]: 42.7 µM and 35.4 µM | TGI [42]: 32.8 µM | GI50 [43]: 18.1 µM | TGI [43]: > 50 µM and 32.9 µM | GI50 [44]: 16.9 µM | TGI [44]: 50 µM and 33.4 µM | GI50 [45]: 17.6 µM | TGI [45]: 50 µM and 33.8 µM | GI50 [46]: 21.9 µM | TGI [46]: 50 µM and 50.6 µM | GI50 [47]: 16.2 µM | TGI [47]: 32.7 µM and 34 µM | GI50 [48]: 19.2 µM | TGI [48]: 50 µM and 37.3 µM | TGI [49]: 32.7 µM | GI50 [50]: 12.7 µM | TGI [50]: 50 µM and 39 µM | GI50 [51]: 1.39 µM | TGI [51]: 22 µM and 13 µM | GI50 [52]: 15.8 µM | TGI [52]: 50 µM and 29.6 µM | TGI [53]: 50 µM and 31.9 µM | GI50 [54]: 17 µM | TGI [54]: 50 µM and 30.6 µM | GI50 [55]: 14.4 µM | TGI [55]: 50 µM and 27.6 µM | GI50 [56]: 14.4 µM | TGI [56]: > 50 µM and 27.7 µM | TGI [57]: 50 µM and 34.7 µM | GI50 [58]: 0.0496 µM | TGI [58]: 40.2 µM and 20.8 µM | TGI [59]: 27.7 µM
